Laboratory results as given in patent publication US4942226A, “Halogenated pyrimidine nucleosides and their derivatives” (Merck & Co., Inc., priority 1988, dated 1990).
Counter-ions that a name gives are not always drawn. Like-named read-outs stand apart in the source and are kept apart here.

Test: Determination of Ester Half-lives (conversion of ester to alcohol in phosphate buffer at 37°, HPLC)
Format: physicochemical
Conditions: read-out: t1/2 (time required for 50% conversion of ester to alcohol)
Method: Determination of Ester Half-lives
Two mL of phosphate buffer preheated to 37° were added to approximately 0.5 mg of the ester dihydrochloride. The resulting solution was heated at 37° while 20 μL samples were removed at intervals and injected directly into the HPLC injection port.
Unreacted ester and 5-halo-2'-deoxyuridine concentrations were determined by HPLC analysis on a C-18 reverse phase column using a gradient of 98% pH 2.4 phosphoric acid--2% acetonitrile to 70% pH 2.4 phosphoric acid--30% acetonitrile over 10 minutes. The UV detector was set at 280 nm. The half-life (t1/2) is the time required for 50% conversion of ester to alcohol.

| half-life (pH 6.8, 37°) [min] | half-life (pH 7.4, 37°) [min] | SMILES |
| --- | --- | --- |
| 32 | 26 | CCNCCNCC(=O)O[C@H]1C[C@H](n2cc(Br)c(=O)[nH]c2=O)O[C@@H]1CO [Example 1, 5-Bromo-2'-deoxyuridine 3'-N-(2-Ethylaminoethyl)-glycyl Ester Dihydrochloride] |
| 47 | 29 | O=C(CNCCNCCC1CCCCC1)O[C@H]1C[C@H](n2cc(Br)c(=O)[nH]c2=O)O[C@@H]1CO [Example 2, 5-Bromo-2'-deoxyuridine 3'-[N-(2-(2-Cyclohexylethylamino)ethyl)glycyl]esterDihydrochloride] |
| 35 | 22 | O=C(CNCCNCCC1CCCCC1)OC[C@H]1O[C@@H](n2cc(Br)c(=O)[nH]c2=O)C[C@@H]1O [Example 3, 5-Bromo-2'-deoxyuridine 5'-N-(2-(2-cyclohexylethylamino)ethyl]glycyl Ester Dihydrochloride] |
